Assay results as given in patent US10918625B2, “Use of sesquiterpene derivative” (KOOKMIN UNIVERSITY INDUSTRY ACADEMY COOPERATION FOUNDATION, priority 2016, dated 2021).

Columns and labels:
Wnt/β-catenin pathway [1] = experiment: Wnt/β-catenin pathway inhibitory activity: cytoplasmic β-catenin by western blot in Wnt3a-CM treated HEK293 cells; type: cell-based, human; details: Wnt3a-CM, 15 hours
Procedure: HEK293 cells (human embryonic kidney cells) and Wnt3a-secreting L cells were obtained from the ATCC (American Type Culture Collection, USA) and were cultured in DMEM (Dulbecco's modified Eagle's medium) supplemented with 10% FBS (fetal bovine serum), 120 μg/mL penicillin and 200 μg/mL streptomycin.
Wnt3a-CM (Wnt3a-conditioned medium) was prepared by culturing Wnt3a-secreting L cells in DMEM supplemented with 10% [v/v] FBS (fetal bovine serum) for 4 days and recovering the DMEM medium and sterilizing by filtering through a 0.22-μm filter. Then, after adding a fresh DMEM (supplemented with 10% [v/v] FBS) medium to the cells and culturing for 3 days, the medium was recovered by the same method and then combined with the previously prepared Wnt3a-CM.
After treating HEK293 cells with the Wnt3a-CM, the compound of Preparation Example 30 or the compound of Preparation Example 31 (10, 20 or 40 μM) for 15 hours and extracting cytoplasmic proteins from the cells, the amount of β-catenin regulating the CRT (β-catenin response transcription) of the Wnt/β-catenin pathway in the cells was investigated by western blot using a β-catenin antibody (BD Transduction Laboratories, USA) and the ECL system (Santa Cruz Biotechnology).
The Wnt/β-catenin pathway inhibitory activity of the Preparation Example 32 compound was evaluated in the same manner as in Example <1-1>. Briefly, after treating HEK293 cells with the Wnt3a-CM or the compound of Preparation Example 32 (10 or 20 μM) for 15 hours and extracting cytoplasmic proteins from the cells, the amount of β-catenin regulating the CRT (β-catenin response transcription) of the Wnt/β-catenin pathway in the cells was investigated by western blot using a β-catenin antibody (BD Transduction Laboratories, USA) and the ECL system (Santa Cruz Biotechnology).

Wnt/β-catenin pathway [2] = experiment: Wnt/β-catenin pathway inhibitory activity: cytoplasmic β-catenin by western blot in Wnt3a-CM treated ARPE-19 cells; type: cell-based; details: ARPE-19 human retinal epithelial cells, Wnt3a-CM, compound 3 or 6 μM, 24 hours
Procedure: ARPE-19 cells (human retinal epithelial cells) and Wnt3a-secreting L cells were obtained from the ATCC (American Type Culture Collection, USA) and were cultured in DMEM (Dulbecco's modified Eagle's medium) supplemented with 10% FBS, 120 μg/mL penicillin and 200 μg/mL streptomycin. Wnt3a-CM (Wnt3a-conditioned medium) was prepared by culturing Wnt3a-secreting L cells in DMEM supplemented with 10% [v/v] FBS (fetal bovine serum) for 4 days and recovering the DMEM medium and sterilizing by filtering through a 0.22-μm filter. Then, after adding fresh DMEM (supplemented with 10% [v/v] FBS) to the cells and culturing for 3 days, Wnt3a-CM was recovered.
After treating ARPE-19 cells with the Wnt3a-CM, the compound of Preparation Example 33 or the compound of Preparation Example 34 (3 or 6 μM) for 24 hours and extracting cytoplasmic proteins from the cells, the amount of β-catenin regulating the CRT (β-catenin response transcription) of the Wnt/β-catenin pathway in the cells was investigated by western blot using a β-catenin antibody (BD Transduction Laboratories, USA) and the ECL system (Santa Cruz Biotechnology).

[3] = tested on: macular edema-induced mouse model; experiment: Inhibition of vascular leakage in the eye, intravitreal administration, laser-induced macular edema mouse model (FA and OCT); type: in vivo, C57BL/6 mouse; details: 100 ng/0.5 μL in DMSO intravitreal 24 hours after laser, read one week later, vs DMSO control group
Procedure: Macular edema was induced in a 10-week-old C57BL/6 mouse by irradiating a laser. After anesthetizing the mouse with ketamine (70 mg/kg) and xylazine (30 mg/kg), the pupil was dilated with 1% tropicamide. Hydroxypropylmethyl cellulose was dropped onto the eye and a microscope cover glass was used as a contact lens. Then, five laser burns were made in the space between the blood vessels around the optic disc (Zeiss 1149-630, laser power 180 mW, duration 0.1 s, spot size 50 μm). In this state, the blood vessel size and permeability were investigated by fluorescein angiography (FA) and optical coherence tomography (OCT). 24 hours after the laser irradiation, 0.5 μL of DMSO (dimethyl sulfoxide) was injected to a control group and 100 ng/0.5 μL of the Preparation Example 33 compound dissolved in DMSO was injected to a test group, into the vitreous cavity of the mouse. One week later, fluorescein angiography and optical coherence tomography were conducted again.

[4] = tested on: macular edema-induced mouse model; experiment: Inhibition of vascular leakage in the retina, intraperitoneal administration, laser-induced macular edema mouse model (OCT); type: in vivo, C57BL/6 mouse; details: 1 mg/kg intraperitoneal every day for 7 days, OCT on day 6, vs vehicle
Procedure: After inducing macular edema in a C57BL/6 mouse and intraperitoneally administering the compound of Preparation Example 33, vascular leakage in the retina was investigated.
Briefly, after anesthetizing an 8-to-12-week-old C57BL/6 mouse with Zoletil (40 mg/kg) and xylazine (5 mg/kg), the pupil was dilated with 1% tropicamide. Hydroxypropylmethyl cellulose was dropped onto the eye and a microscope cover glass was used as a contact lens. Then, 3-5 laser burns were made in the space between the retinal blood vessels around the optic disc (Zeiss 1149-630, laser power 200 mW, duration 0.05 s, spot size 50 μm).
After the laser irradiation, 10 mL/kg of distilled water as a vehicle was intraperitoneally administered to a control group (FIG. 5, A) and 1 mg/kg of the compound of Preparation Example 33 (dissolved distilled water) was intraperitoneally administered to a test group (FIG. 5, B) every day for 7 days. On day 6, 10% sodium fluorescein was intraperitoneally administered and optical coherence tomography was conducted.

[5] = In vivo PK after oral administration: concentration in blood plasma and eye (LC-MS/MS); set-up: species or system ICR mouse; details: 10 mg/kg oral gavage, plasma and eye at 0.5 hour and 2 hours
Procedure: Male ICR mice (8 weeks, 30-35 g) were purchased from Samtako Co. (Osan, Korea). The test animals were acclimatized for a week under the following conditions: temperature 23±2° C., relative humidity 55±10%, illumination intensity 150-300 lux, ventilation frequency 15-20 times/h, illumination cycle 12 h (07:00-19:00). All the animal experiments were approved by the Animal Care and Use Committee of Kyungpook National University (Study No. 2016-0043).
The mice were fasted for 12 hours before drug administration. Feed and water were supplied ad libitum. The compound of Preparation Example 33 was dissolved in DW:PEG 400 (=60:40 (v/v)) and administered by oral gavage at a dose of 10 mg/kg.
0.5 hour and 2 hours after the oral administration, blood samples were taken from the abdominal artery. […] of a plasma sample obtained after centrifuging the blood sample at 13,000 rpm for 5 minutes was stored at −80° C. until use for analysis. […]
In order to investigate the distribution of the compound of the present disclosure in the target tissue, the compound was orally administered at a dose of 10 mg/kg and the concentration of the compound in the blood plasma and eye was measured. The sampling times were determined as 0.5 hour and 2 hours based on the peak plasma concentration and the distribution phase. […]

C57BL/6J mice = experiment: Tissue toxicity, long-term (8 weeks) administration: blood GPT, BUN, liver and kidney sections; type: in vivo, C57BL/6J mouse; details: different doses for 8 weeks
Procedure: A long-term toxicity test was conducted by administering the compound of Preparation Example 33 at different doses to C57BL/6J mice (10 mice per group) for 8 weeks. In order to investigate the effect on different organs (tissues) of the animals, blood was taken from the animals of the test group to which the compound of Preparation Example 33 was administered and the control group to which only PEG 400:Tween 80:ethanol (8:1:1, v:v:v) was administered 8 weeks later and the level of GPT (glutamate-pyruvate transferase) and BUN (blood urea nitrogen) in the blood was measured using Select E (Vital Scientific NV, Netherlands).

For `C=C1CCCC2C1(C)CCC(C)C2(C)Cc1c(O)c(OC)cc2nc(C)oc12` [Preparation Example 31, 18-methoxy-22-methyl-16-[{(5S,8S,9R,10S)-5,8,9-trimethyl-4-methylenedecahydronaphthalen-9-yl}methyl]benzo[d]-oxazol-17-ol], the “level of β-catenin in the cytoplasm (western blot)” value (shortened to “level of β-catenin in the cytoplasm”) (Wnt/β-catenin pathway [1]; compound 10, 20 or 40 μM) was “decreased level of β-catenin”.
For `C=C1CCC[C@H]2[C@](C)(CC3=C(O)C(=O)C=C(OC)C3=O)[C@@H](C)CC[C@]12C` [Preparation Example 33, 3-[[(1R,2S,4aS,8aS)-1,2,4a-trimethyl-5-methylidene-3,4,6,7,8,8a-hexahydro-2H-naphthalen-1-yl]methyl]-2-hydroxy-5-methoxycyclohexa-2,5-diene-1,4-dione], the “level of β-catenin in the cytoplasm” value (Wnt/β-catenin pathway [2]) was “decreased level of β-catenin”, the “vascular leakage (fluorescein angiography and optical coherence tomography)” value [3] was “distinctly decreased vascular leakage” and the “vascular leakage (optical coherence tomography)” value [4] was “inhibited vascular leakage”. For the same compound, the “distribution in the eye after oral administration” value [5] was “highly targeted in the eye”, the “permeability for the target tissue (eye)” value [5] was “high permeability” and the “liver and kidney tissue sections under optical microscope” value (C57BL/6J mice) was “no special abnormality”. For the same compound, the “BUN (blood urea nitrogen) in the blood, control group vs test group” value (C57BL/6J mice; related with kidney toxicity) was “no significant difference” and the “GPT (glutamate-pyruvate transferase) in the blood, control group vs test group” value (C57BL/6J mice; related with liver toxicity) was “no significant difference”.
For `C=C1CCCC2C1(C)CCC(C)C2(C)CC1=C(O)C(=O)C=C(NCCc2ccccc2)C1=O` (stereo not drawn) [Preparation Example 32], the “level of β-catenin in the cytoplasm” value (Wnt/β-catenin pathway [1]; compound 10 or 20 μM) was “decreased level of β-catenin”.
With `C=C1CCC[C@@H]2[C@@](C)(CC3=C(O)C(=O)C=C(OCC)C3=O)[C@H](C)CC[C@@]12C` [Preparation Example 34, 3-[[(1S,2R,4aR,8aR)-1,2,4a-trimethyl-5-methylidene-3,4,6,7,8,8a-hexahydro-2H-naphthalen-1-yl]methyl]-5-ethoxy-2-hydroxycyclohexa-2,5-diene-1,4-dione] the “level of β-catenin in the cytoplasm” value (Wnt/β-catenin pathway [2]) was “decreased level of β-catenin”.
For `C=C1CCCC2C1(C)CCC(C)C2(C)CC1=C2OC(C)(C)N=C2C=C(OC)C1=O` [Preparation Example 30, 18-methoxy-22,22-dimethyl-16-[{(5R,8S,9R,10S)-5,8,9-trimethyl-4-methylenedecahydronaphthalen-9-yl}methyl]benzo[d]-oxazol-17(2H)-one], the “level of β-catenin in the cytoplasm” value (Wnt/β-catenin pathway [1]; compound 10, 20 or 40 μM) was “decreased level of β-catenin”.
